Experimental data published in US20060178374A1, “Aminoheteroaryl compounds as protein kinase inhibitors” (AGOURON PHARMACEUTICALS, INC., priority 2004, published 2006).

Target: HGFR (c-Met) (Homo sapiens, UniProt P08581)
Experiment: HGFR Continuous-Coupled Spectrophotometric Assay
Assay type: biochemical
Conditions: for Ki: HGFR enzyme 50 nM, Met-2 peptide substrate, 37° C.; for inhibition at 1 µM: compound at 1 μM
Experimental: The general procedure is as follows: compounds and kinase assay reagents are introduced into test wells. The assay is initiated by addition of the kinase enzyme. Enzyme inhibitors reduce the measured activity of the enzyme.
In the continuous-coupled spectrophotometric assay the time-dependent production of ADP by the kinase is determined by analysis of the rate of consumption of NADH by measurement of the decrease in absorbance at 340 nm. As the PK produces ADP it is re-converted to ATP by reaction with phosphoenol pyruvate and pyruvate kinase. Pyruvate is also produced in this reaction. Pyruvate is subsequently converted to lactate by reaction with lactate dehydrogenase, which simultaneously converts NADH to NAD.
HGFR Continuous-Coupled Spectrophotometric Assay
This assay analyzes the tyrosine kinase activity of HGFR on the Met-2 substrate peptide, a peptide derived from the activation loop of the HGFR.
• 1. […] Dissolve up in 200 mM HEPES, pH 7.5 at 10 mM stock. • 3. 1 M PEP (phospho-enol-pyruvate) in 200 mM HEPES, pH 7.5 • 4. 100 mM NADH (B-Nicotinamide Adenine Dinucleotide, Reduced Form) in 200 mM HEPES, pH 7.5 • 5. 4 M MgCl2 (Magnesium Chloride) in ddH2O 6. 1 M DTT (Dithiothreitol) in 200 mM HEPES, pH 7.5 • 7. 15 Units/mL LDH (Lactic Dehydrogenase) • 8. 15 Units/mL PK (Pyruvate Kinase) • 9. 5M NaCl dissolved in ddH2O • 10. Tween-20 (Protein Grade) 10% Solution • 11. 1 M HEPES buffer: (N-[2-Hydroxethyl]piperazine-N-[2-ethanesulfonic acid]) Sodium Salt. Dissolve in ddH2O, adjust pH to 7.5, bring volume to 1 L. Filter at 0.1 μm. • 12. […] 100% DMSO (SIGMA) • 14. […] Beckman DU-650 w/ micro cell holders • 18. Beckman 4-position micro cell cuvette Procedure:
Prep Dilution Buffer (DB) for Enzyme (For 30 mL prep) • 1. DB final concentration is 2 mM DTT, 25 mM NaCl2, 5 mM MgCl2, 0.01% Tween-20, and 50 mM HEPES buffer, pH 7.5. • 2. Make up 50 mM HEPES by adding 1.5 mL 1 M HEPES into 28.1 mL of ddH2O. Add rest of the reagents. Into 50 mL conical vial, add 60 μL of 1M DTT, 150 μL 5M NaCl2, 150 μL 1M MgCl2, and 30 μL of 10% Tween-20 to give total volume of 30 mL. • 3. Vortex for 5-10 seconds. • 4. Aliquot out DB at 1 mL/tube and label tubes as “DB HGFR” • 5. Note: This can be prepared and stored ahead of time. • 6. Freeze un-used aliquots in microcentrifuge tubes at −20° C. freezer.
Prep Compounds • 1. For compound dilution plate, add 4 μL of 10 mM stock into column 1 of plate, and bring volume to 100 μL with 100% DMSO. • 2. Set up the Precision 2000 dilution method. A final concentration of 200 μM compound in 50% DMSO, 100 mM HEPES (1:2 serial dilution).
Prep Coupled Enzymatic Buffer:
1. Final concentration in assay:
• 2. For a 10 mL reaction buffer add 10 μL of 1M PEP, 33 μL of 100 mM NADH, 50 μL of 4M MgCl2, 20 μL of 1M DTT, 6 μL of 500 mM ATP, and […] of 10 mM Met-2 peptide into 100 mM HEPES buffer pH 7.5 and vortex/mix. • 3. Add coupling enzymes, LDH and PK, into reaction mix. Mix by gentle inversion.
1. Spectrophotometer settings:
• 2. Add 85 μL of CE reaction mix into each well of assay plate. • 3. Add 5 μL of diluted compound into a well of the assay plate. • 4. Add 5 μL of 50% DMSO for negative control into last column of assay plate. • 5. Mix with multi-channel pipettor or orbital shaker. • 6. Pre-incubate for 10 minutes at 37° C. • 7. Add 10 μL of 500 nM HGFR to each well of assay plate; the final HGFR concentration is 50 nM in a total final volume of 100 μL. • 8. Measure activity for 10 minutes at λ=340 nm and 37° C.
Ki data were obtained using the HGFR Continuous-Coupled Spectrophotometric Assay, and IC50 data were obtained using the Cellular HGFR Autophosphorylation Assay, both of which are described above.

Chain of HGFR (c-Met) (P08581 974-1390): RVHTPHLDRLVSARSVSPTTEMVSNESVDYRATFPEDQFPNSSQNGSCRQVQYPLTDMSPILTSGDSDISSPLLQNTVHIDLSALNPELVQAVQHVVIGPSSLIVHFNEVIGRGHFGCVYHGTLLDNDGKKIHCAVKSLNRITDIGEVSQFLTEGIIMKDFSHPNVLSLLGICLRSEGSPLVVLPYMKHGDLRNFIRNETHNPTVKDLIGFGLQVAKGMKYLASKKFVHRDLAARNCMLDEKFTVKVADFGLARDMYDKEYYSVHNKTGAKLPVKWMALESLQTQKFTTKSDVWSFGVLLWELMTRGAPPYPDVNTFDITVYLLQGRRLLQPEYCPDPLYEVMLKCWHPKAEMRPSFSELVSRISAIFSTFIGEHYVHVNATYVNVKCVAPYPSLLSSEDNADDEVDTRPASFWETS

| Compound | Ki | inhibition at 1 µM |
| --- | --- | --- |
| CCN(CCO)C(=O)c1ccc(-c2cnc(N)c(OC(C)c3c(Cl)ccc(F)c3Cl)c2)cc1 (centres unmarked) [Example 1, 4-{6-Amino-5-[1-(2,6-dichloro-3-fluorophenyl)ethoxy]-pyridin-3-yl}N-ethyl-N-(2-hydroxyethyl)benzamide] | 39 nM | 94% |
| COCCN1CCN(C(=O)c2ccc(-c3cnc(N)c(OC(C)c4c(Cl)ccc(F)c4Cl)c3)cc2)CC1 (centres unmarked) [Example 4] | 44 nM | 95% |
| CNCCCNC(=O)c1ccc(-c2cnc(N)c(OC(C)c3c(Cl)ccc(F)c3Cl)c2)cc1 (centres unmarked) [Example 10, 4-{6-Amino-5-[1-(2,6-dichloro-3-fluorophenyl)ethoxy]pyridin-3-yl}-N-[3-(methylamino)propyl)benzamide] | 37 nM | 89% |
| CC(Oc1cc(-c2ccc(C(=O)NCCCN)cc2)cnc1N)c1c(Cl)ccc(F)c1Cl (centres unmarked) [Example 11, 4-(6-Amino-5-[1-(2,6-dichloro-3-fluorophenyl)ethoxy]pyridin-3-yl}-N-(3-aminopropyl) benzamide] | 45 nM | 86% |
| CC(Oc1cc(-c2ccc(C(=O)NC3CCNCC3)cc2)cnc1N)c1c(Cl)ccc(F)c1Cl (centres unmarked) [Example 12, 4-{6-Amino-5-[1-(2,6-dichloro-3-fluorophenyl)ethoxy]pyridin-3-yl}-N-piperidin-4-ylbenzamide] | 41 nM | 86% |
| CC(Oc1cc(-c2ccc(C(=O)NCC3CCNCC3)cc2)cnc1N)c1c(Cl)ccc(F)c1Cl (centres unmarked) [Example 13, 4-{6-Amino-5-[1-(2,6-dichloro-3-fluorophenyl)ethoxy]pyridin-3-yl}-N-(piperidin-4-ylmethyl)benzamide] | 48 nM | 87% |
| CC(Oc1cc(-c2ccc(C(=O)NCC3CCNC3)cc2)cnc1N)c1c(Cl)ccc(F)c1Cl (centres unmarked) [Example 15, 4-{6-Amino-5-[1-(2,6-dichloro-3-fluorophenyl)ethoxy]pyridin-3-yl}-N-(pyrrolidin-3-ylmethyl)benzamide] | 71 nM | 85% |
| CC(Oc1cc(-c2ccc(C(=O)NC3CCCNC3)cc2)cnc1N)c1c(Cl)ccc(F)c1Cl (centres unmarked) [Example 16, 4-{6-Amino-5-[1-(2,6-dichloro-3-fluorophenyl)ethoxy]pyridin-3-yl}-N-piperidin-3-ylbenzamide] | 44 nM | 91% |
| CC(Oc1cc(-c2ccc(C(=O)NCCN)cc2)cnc1N)c1c(Cl)ccc(F)c1Cl (centres unmarked) [Example 17, 4-{6-Amino-5-[1-(2,6-dichloro-3-fluorophenyl)ethoxy]pyridin-3-yl}N-(2-aminoethyl) benzamide] | 68 nM | 90% |
| CC(Oc1cc(-c2ccc(C(=O)N3CCC4(CCNCC4)C3)cc2)cnc1N)c1c(Cl)ccc(F)c1Cl (centres unmarked) [Example 19, 5-[4-(2,8-Diazaspiro[4.5]dec-2-ylcarbonyl)phenyl]-3-[1-(2,6-dichloro-3-fluorophenyl)ethoxy]pyridin-2-amine] | 46 nM | 93% |
| COc1cc(-c2cnc(N)c(OC(C)c3c(Cl)ccc(F)c3Cl)c2)ccc1C(=O)N1CCCCC1 (centres unmarked) [Example 24, 3-[1-(2,6-dichloro-3-fluorophenyl)ethoxy]-5-[3-methoxy-4-(piperidin-1-ylcarbonyl)phenyl]pyridin-2-amine] | 1030 nM |  |
| CC(Oc1cc(-c2ccc(-c3ccno3)cc2)cnc1N)c1c(Cl)ccc(F)c1Cl (centres unmarked) [Example 25, 3-[1-(2,6-dichloro-3-fluorophenyl)ethoxy]-5-(4-isoxazol-5-ylphenyl)pyridin-2-amine] | 87.7 nM |  |
| COc1cc(-c2cnc(N)c(OC(C)c3c(Cl)ccc(F)c3Cl)c2)ccc1CO (centres unmarked) [Example 26, (4-{6-amino-5-[1-(2,6-dichloro-3-fluorophenyl)ethoxy]pyridin-3-yl}-2-methoxyphenyl) methanol] | 79.5 nM |  |

More lines, in order of falling Ki, values ahead:

| Ki | inhibition at 1 µM | Compound |
| --- | --- | --- |
| 37 nM | 91% | CNCCNC(=O)c1ccc(-c2cnc(N)c(OC(C)c3c(Cl)ccc(F)c3Cl)c2)cc1 (centres unmarked) [Example 9, 4-{6-Amino-5-[1-(2,6-dichloro-3-fluorophenyl)ethoxy]pyridin-3-yl}-N-[2-(methylamino)ethyl)benzamide] |
| 36 nM | 90% | CCNCCNC(=O)c1ccc(-c2cnc(N)c(OC(C)c3c(Cl)ccc(F)c3Cl)c2)cc1 (centres unmarked) [Example 18, 4-{6-Amino-5-[1-(2,6-dichloro-3-fluorophenyl)ethoxy]pyridin-3-yl}-N-[2-(ethylamino)ethyl]benzamide] |
| 33 nM | 95% | CC(Oc1cc(-c2ccc(C(=O)N(C)CCC#N)cc2)cnc1N)c1c(Cl)ccc(F)c1Cl (centres unmarked) [Example 2, 4-{6-Amino-5-[1-(2,6-dichloro-3-fluorophenyl)ethoxy]pyridin-3-yl}-N-(2-cyanoethyl)-N-methylbenzamide] |
| 31 nM | 96% | CC(Oc1cc(-c2ccc(C(=O)N3CCS(=O)(=O)CC3)cc2)cnc1N)c1c(Cl)ccc(F)c1Cl (centres unmarked) [Example 5, 3-[1-(2,6-Dichloro-3-fluorophenyl)ethoxy]-5-{4-[(1,1-dioxidothiomorpholin-4-yl)carbonyl]phenyl)pyridine-2-amine] |
| 27.2 nM |  | COc1cc(-c2cnc(N)c(OC(C)c3c(Cl)ccc(F)c3Cl)c2)ccc1C(=O)N1C[C@@H](C)N[C@@H](C)C1 (stereo partly drawn) [Example 23, 3-[1-(2,6-dichloro-3-fluorophenyl)ethoxy]-5-(4-{[(3R,5S)-3,5-dimethylpiperazin-1-yl]carbonyl}-3-methoxyphenyl)pyridin-2-amine] |
| 26 nM |  | CC(C)NC(=O)CN1CCN(C(=O)c2ccc(-c3cnc(N)c(OC(C)c4c(Cl)ccc(F)c4Cl)c3)cc2)CC1 (centres unmarked) [Example 3, 2-[4-(4-{6-Amino-5-[1-(2,6-dichloro-3-fluorophenyl)ethoxy]pyridin-3-yl}benzoyl)piperazin-1-yl]-N-isopropylacetamide] |
| 26 nM | 96% | CC(Oc1cc(-c2ccc(C(=O)N3CCN(C4CCN(C)CC4)CC3)cc2)cnc1N)c1c(Cl)ccc(F)c1Cl (centres unmarked) [Example 7, 3-[1-(2,6-Dichloro-3-fluorophenyl)ethoxy]-5-(4-{[4-(1-methylpiperidin-4-yl)piperazin-1-yl]carbonyl)phenyl)pyridin-2-amine] |
| 26 nM | 93% | CC(Oc1cc(-c2ccc(C(=O)N3CC4CNCC4C3)cc2)cnc1N)c1c(Cl)ccc(F)c1Cl (centres unmarked) [Example 20, 3-[1-(2,6-Dichloro-3-fluorophenyl)ethoxy]-5-[4-(hexahydropyrrolo[3,4-c]pyrrrol-2 (1H)-ylcarbonyl)phenyl]pyridin-2-amine] |
| 24 nM | 95% | CC(Oc1cc(-c2ccc(C(=O)N3CCC(N(C)C)CC3)cc2)cnc1N)c1c(Cl)ccc(F)c1Cl (centres unmarked) [Example 6] |
| 20 nM | 94% | CC(Oc1cc(-c2ccc(C(=O)N3CC[N@]4C[C@H]3C4)cc2)cnc1N)c1c(Cl)ccc(F)c1Cl (some centres unmarked) [Example 8, 5-[4-(1,4-Diazabicyclo[3.1.1]hept-4-ylcarbonyl)phenyl]-3-[1-(2,6-dichloro-3-fluorophenyl)ethoxy]pyridin-2-amine] |
